Laboratory results as given in ChEMBL document CHEMBL3507680, “University of Dundee, Gates Library screen for HepG2 cell viability”.

Assay: Human HepG2 cell viability assay in 384 well format
Assay type: toxicity, cell-based
Design: dose 125 nL, time 70.5 hour; cytotoxicity at 70.5 h: concentration not given beside the values
Conditions: HepG2 cells, read-out: Inhibition

| SMILES | cytotoxicity at 70.5 h |
| --- | --- |
| CC(=O)N1CC2(CCCC2)c2ccccc21 | -3.2% |
| CC(C)NC(=O)N1CCC[C@H]1C(=O)NCCCc1cccc(F)c1 | -5.95% |
| O=C1CC2(CCSC2)C(=O)N1Cc1coc(-c2ccc(F)cc2)n1 (configuration not stated) | -3.42% |
| CCN1CC(COC(=O)c2ccc(N(C)C)cc2F)CC1=O (configuration not stated) | -3.33% |
| N#Cc1ccc(CN2CCN(Cc3ccncc3Cl)CC2=O)cc1 | 2.38% |
| CC(C)COC(=O)N1CCCN(C(C)c2nnc(CC(C)C)o2)CC1 (configuration not stated) | -3.09% |
| CCN1CC(COC(=O)c2cc(Br)ccc2F)CC1=O (configuration not stated) | 0.441% |
| CC1(C)CN(C(CNS(N)(=O)=O)c2ccc(Cl)cc2)CCO1 (configuration not stated) | -3.76% |
| CC(=O)N1CCN(C(C)c2nnc(CC(C)C)o2)CC1 (configuration not stated) | -4.1% |
| NC(=O)CC1CCCN(C(=O)NCC2(c3cccs3)CCCC2)C1 (configuration not stated) | -0.84% |
| N#Cc1ccc(CN2CCN(c3ccncc3Cl)CC2=O)cc1 | -4.03% |
| Cc1noc(C(C)Nc2ccc3c(c2)CCC3)n1 (configuration not stated) | 8.72% |
| Cc1cc(CN(C)CC2CC(C3CCCCC3)=NO2)no1 (configuration not stated) | 0.975% |
| CCOc1ccc2c(c1)C=C(C(=O)NC(C)Cn1cccn1)CO2 (configuration not stated) | -5.74% |
| CCCOc1ccc2c(c1)OCC(C(=O)NC(C)Cn1cccn1)=C2 (configuration not stated) | 1.23% |
| CCCOc1ccc2c(c1)OCC(C(=O)NC(C)Cn1ccnc1)=C2 (configuration not stated) | -6.31% |
| Cc1cc(C)nc(N2CCc3ccc(OC(F)F)cc3C2)n1 | -2.64% |
| CS(=O)(=O)c1ccc2c(c1)N(C(=O)Cc1ccc(F)cc1)CCC2 | 14.3% |
| CS(=O)(=O)c1ccc2c(c1)N(C(=O)c1cccc(F)c1)CCC2 | -4.57% |
| CCc1ccc(O)c(C(=O)N2CCN(CC(=O)N(C)C)CC2)c1 | -1.61% |
| CS(=O)(=O)c1cccc2c1CCCN2C(=O)Cc1cccc(F)c1 | -2.8% |
| COc1ccc(Oc2ncccc2NC(=O)N2CCOCC2)cc1 | -6.42% |
| CC(C)C(NC(=O)Nc1cnn(CC(N)=O)c1)c1ccc(Cl)cc1 (configuration not stated) | -1.5% |
| COC(=O)C(CNC(=O)Nc1nncs1)Cc1ccc(O)cc1 (configuration not stated) | -2.82% |

| SMILES | cytotoxicity at 70.5 h |
| --- | --- |
| CC(Nc1nc2c(cnn2C)c(=O)[nH]1)c1ccc(F)cc1 (configuration not stated) | -2.55% |
| CC(Nc1nc2c(cnn2C)c(=O)[nH]1)c1ccc2c(c1)CCCC2 (configuration not stated) | -3.73% |
| CC(C)Sc1ccc(C(C)Nc2nc3c(cnn3C)c(=O)[nH]2)cc1 (configuration not stated) | -3.27% |
| Cn1nc2c(cc1=O)CN(Cc1nc(-c3ccoc3)no1)CC2 | -2.1% |
| Cc1cc(CN(C)C(=O)NC(C)Cc2ccc(O)cc2)no1 (configuration not stated) | 0.825% |
| CC(C(=O)Nc1cnn(CC(N)=O)c1)c1ccc(Cl)s1 (configuration not stated) | -4.91% |
| Cc1ccc(CN(CC(=O)NCC2CCOC2)c2ccc(F)cc2)o1 (configuration not stated) | -3.8% |
| O=C(Nc1ccc(OC(F)F)cc1)N1CCC(c2nnc[nH]2)CC1 | -2.12% |
| CCOc1cc(NC(=O)N2CCC(c3nnc[nH]3)CC2)ccc1C | -0.547% |
| Cc1cc(CN(C)CC2CCCCC2)no1 | -2% |
| CCN(Cc1ccccc1C)S(C)(=O)=O | -3.77% |
| Cc1ccccc1CCCN(C)S(C)(=O)=O | -3.41% |
| Cc1ccccc1CCCN(Cc1ccccn1)S(C)(=O)=O | -0.248% |
| CC(C)n1nc2c(cc1=O)CN(Cc1nc(-c3ccoc3)no1)CC2 | 17% |
| CCc1ccc(O)c(C(=O)N2CCCN(CC(=O)N(CC)CC)CC2)c1 | -0.346% |
| CCCn1nc2c(cc1=O)CN(Cc1nc(-c3ccoc3)no1)CC2 | -2.82% |
| Cc1cc(CSCc2ccccn2)on1 | -1.54% |
| CCc1noc(C(C)N(C)Cc2ccc(OC)c(OC)c2)n1 (configuration not stated) | 1.83% |
| COCc1nc(C(=O)NS(=O)(=O)c2ccc(C)c(C)c2)cs1 | 25.8% |
| CSCC(C)(O)CNC(=O)Nc1ccc(C)cc1Br (configuration not stated) | -3.05% |
| Cn1ccc(C(=O)Nc2nnc(-c3ccccn3)[nH]2)cc1=O | -22.2% |
| CC(C)c1nc2cc(NC(=O)Cn3ccccc3=O)ccc2o1 | -3.88% |
| COc1ccc(Br)cc1CN(C)C(C)c1nc(C(C)C)no1 (configuration not stated) | -19.6% |
| O=C(NC1CCN(c2cccc(OC(F)(F)F)c2)C1=O)C1CC1 (configuration not stated) | 0.481% |

| SMILES | cytotoxicity at 70.5 h |
| --- | --- |
| O=C(CS(=O)(=O)C1CCCC1)NC1CCc2nccn2C1 (configuration not stated) | -9.54% |
| Cc1cn2c(n1)CCC(NC(=O)CNS(C)(=O)=O)C2 (configuration not stated) | -4.61% |
| CCCC(NC(=O)c1occc1C)c1nnn[nH]1 (configuration not stated) | -1.34% |
| Cc1cccc(NC(=O)[C@@H]2CCCN2Cc2nnc(C(C)C)n2C)n1 | -1.83% |
| O=C(CCN1CCCC1c1cccc2c1OCCO2)N1CCOCC1 (configuration not stated) | -2.76% |
| O=C(CCc1ncc(-c2ccc(F)cc2)o1)NCCN1CCOCC1 | -3.91% |
| O=C(C1CC(=O)N(c2ccccc2Br)C1)N1CCN(CC(F)(F)F)CC1 (configuration not stated) | -8.32% |
| CCC(C)(C)NCc1nc(C(C)(C)NC(=O)OC(C)(C)C)no1 | -10.2% |
| O=C(NCCNS(=O)(=O)c1cc(F)cc(F)c1)c1ccoc1 | -8.89% |
| COc1ccccc1NC(=O)Cc1c(C)nc2c(c1C)c(=O)[nH]n2C | -3.59% |
| O=C(Nc1ccc(OCc2cccc(F)c2)c(F)c1)C1COCCO1 (configuration not stated) | -3.19% |
| Cc1cc(C)cc(NC(=O)Cc2c(C)nc3c(c2C)c(=O)[nH]n3C)c1 | -0.0448% |
| CCNC(=O)NC1CCN(c2ccc(S(=O)(=O)CC)cc2)CC1 | 0.434% |
| COc1ncccc1NC(=O)N1CCC(c2ccc(O)cc2)CC1 | -3.42% |
| COc1ccc(CNC(=O)NC2CCN(c3ccccc3)C2=O)cc1 (configuration not stated) | -4.11% |
| Cc1cnn(CC2CCCN2CC(=O)Nc2nncs2)c1 (configuration not stated) | -5.64% |
| CCc1nc(NS(=O)(=O)c2cc(C)cc(F)c2)no1 | -0.337% |
| CCS(=O)(=O)NCc1cc(Br)c(OC)c(OC)c1 | -8.56% |
| Cc1ccccc1C(O)CNS(=O)(=O)Cc1cccc(C#N)c1 (configuration not stated) | -3.55% |
| CCOCc1cccc(NC(=O)C2COCCO2)c1 (configuration not stated) | -7.73% |
| O=C(NCCc1ccc(F)cc1)NC1CCCc2c1cnn2CCO (configuration not stated) | -6.55% |
| CN(Cc1ccccc1)C(=O)CCNS(=O)(=O)c1cccnc1 | 11.8% |
| COc1ccc(OCC(O)CN2CCN(c3nccs3)CC2)cc1 (configuration not stated) | -2.04% |
| OC(COc1ccccc1)CN1CCN(c2nccs2)CC1 (configuration not stated) | 0.888% |

| SMILES | cytotoxicity at 70.5 h |
| --- | --- |
| Cc1ccc(CN(C)C(=O)CCNS(=O)(=O)c2cccnc2)cc1 | -7.21% |
| Cc1nc(CCNC(=O)NC2CCCc3c2cnn3CCO)cs1 (configuration not stated) | -9.35% |
| O=C(NCCC1=CCCCC1)NC1CCCc2c1cnn2CCO (configuration not stated) | -10.1% |
| CCCN1CCN(C(=O)c2cnn(-c3ccccc3F)c2)CC1 | 8.36% |
| O=C(NCCN1CCOCC1)c1cnc(Cc2ccc(F)cc2)s1 | -8.24% |
| Cc1cc(C)cc(OCC(O)CN2CCN(c3nccs3)CC2)c1 (configuration not stated) | 8.55% |
| COC(=O)[C@H](C)NC(=O)c1cnc(Cc2ccc(F)cc2)s1 | -0.425% |
| COC(=O)C(C)(C)NC(=O)c1cnc(Cc2ccc(F)cc2)s1 | -2.02% |
| CCNC(=O)NCCc1csc(N2CCCC2)n1 | -9.41% |
| Cc1sc(C(=O)O)cc1S(=O)(=O)Nc1c(F)cccc1-n1cccn1 | 18.5% |
| Cc1nn(C)c(C)c1C1COCCN1c1ncncc1Br (configuration not stated) | -4.79% |
| CCN(CC1CN(CC2CCC2)CCO1)c1cccnn1 (configuration not stated) | -6.19% |
| COc1ccc(C(=O)N2CCOCC2c2ccc(C)o2)cc1 (configuration not stated) | -9.97% |
| Cc1ccc(C2COCCN2C(=O)c2ccc(F)c(F)c2)o1 (configuration not stated) | -0.394% |
| Cc1cc(C)n(-c2ccc(N3CCC4(CC3)OCC(C)O4)nc2)n1 (configuration not stated) | -8.82% |
| OC(CNc1cncc(OCc2ccccc2)n1)c1ccco1 (configuration not stated) | -5.66% |
| CC(C)(C)c1cc(NC(=O)C2COCCO2)n(-c2ccccn2)n1 (configuration not stated) | -0.749% |
| NC(=O)[C@@H]1Cc2ccccc2CN1CCc1cccs1 | -10% |
| CNC(=O)C1Cc2ccccc2CN1CCc1cccs1 (configuration not stated) | -8.64% |
| CC(C)(C)c1cc(NC(=O)C2CCCO2)n(-c2ccccn2)n1 (configuration not stated) | -2.77% |
| Cc1noc(Cl)c1CC(=O)NCCOc1ccc(F)cc1F | -0.975% |
| CN(c1cccc2ccccc12)S(=O)(=O)c1cc(C(=O)O)cs1 | -0.615% |
| CCC(=O)NCC(=O)NCC(C)(C)c1cccc(Br)c1 | -5.47% |
| Cc1noc(C)c1CNC(=O)NCCOc1ccc(F)cc1F | -3.02% |

| SMILES | cytotoxicity at 70.5 h |
| --- | --- |
| Cc1cc(C)n(-c2ccc(N3CCC(O)CC3)nc2)n1 | -1.96% |
| CC(C)NC(=O)CN(C)C1CCN(c2ccc(Cl)cn2)CC1 | -7% |
| CCOc1ccc(CN(C)C2CCN(c3cc(C)nn3C)C2=O)cc1 (configuration not stated) | 19.7% |
| CC(C)OCCCNC(=O)Nc1cccc2ncccc12 | -2.69% |
| CC(C)(C)Cc1noc2ncc(C(=O)N3CCCSCC3)cc12 | 11.1% |
| Cc1cc(N2CCC(N(C)Cc3cccnc3)C2=O)n(C)n1 (configuration not stated) | 13.5% |
| Cn1cc(C(=O)Nc2cccc(F)c2)ccc1=O | 0.823% |
| O=C(NCCNc1ccc(C(F)(F)F)cn1)c1ccoc1 | -8.13% |
| Cc1cc(C)cc(C2(C(=O)NCC(C)CN3CCCC3=O)CC2)c1 (configuration not stated) | -8.76% |
| Cc1ccc(C(=O)N2CCCCC2CNC(N)=O)s1 (configuration not stated) | -6.25% |
| Cc1cccc(OCC(=O)N(C)C2CCN(CC3CCOC3)CC2)c1 (configuration not stated) | -9.11% |
| CCc1cc(NC(=O)c2cccc(OCC(F)(F)F)n2)[nH]n1 | -2.9% |
| COc1cccc(C(O)Cn2ncc3ncccc3c2=O)c1 (configuration not stated) | -10.1% |
| CN1CCN(S(C)(=O)=O)c2cc(F)ccc21 | -14.8% |
| CC(C#N)CNS(=O)(=O)c1ccc(Br)c(F)c1 (configuration not stated) | -8.29% |
| Cn1cc(C(=O)Nc2cccc(Oc3ccncc3)c2)ccc1=O | -4.83% |
| Cc1ccc(S(=O)(=O)NCC(C)C#N)cc1Br (configuration not stated) | -4.59% |
| CC(C)N1C(=O)CC(NC(=O)c2cc(Cl)sc2Cl)C1=O (configuration not stated) | -8.84% |
| Cc1cscc1C(=O)NC1CC(=O)N(C(C)C)C1=O (configuration not stated) | -4.89% |
| Cc1nn(CCO)c(C)c1CNC1CCOc2ccccc21 (configuration not stated) | -2.7% |
| CCCC(N)CNS(=O)(=O)Cc1cccc(C#N)c1 (configuration not stated) | -3.64% |
